From publication PMC8909834, “An Orally Bioavailable and Highly Efficacious Inhibitor of CDK9/FLT3 for the Treatment of Acute Myeloid Leukemia” (Cancers, 2022)
Where two headings read alike, the source gives them in different places.

Assays:
[1] = Dissociation constant by PH metric assay; type: physicochemical
[2] = Drug concentration in plasma and tumor 4 h post final dose; type: in vivo, MV4-11 tumor-bearing mice; settings: BALB/c nude (nu/nu), mouse, oral; for concentration at 4 h: 4 h post final dose
Description: To investigate the effect of CDDD11-8 on its targets in vivo, MV4-11 tumor-bearing mice (n = 3) were treated with the vehicle, CDDD11-8 (75 and 125 mg/kg), orally for 5 days. Four hours post final dose, tumor samples were collected and lysates prepared for western blot analysis (Figure 4C, Supplementary Figure S19). […] These were accompanied by changes in the levels of the proteins involved in cancer cell survival.
We also determined the concentration of CDDD11-8 in the plasma and tumor (Figure 4D, Supplementary Table S5). […] The tumor concentration from the 75 mg/kg dose was 2.5-times the plasma concentration. However, the plasma and tumor concentrations from 125 mg/kg were similar.

[3] = tested on: MV4-11 cells; experiment: Western blotting of cellular signaling pathways; type: cell-based
Description: (§1) Western blotting. Western blotting was performed as described previously. Briefly, cells were lysed after incubation with different concentrations of compounds or control (0.1% DMSO) at the indicated times, samples were denatured at 95 °C for 5 min, and proteins having different molecular weights within each sample were separated by electrophoresis (Bio-Rad, Hercules, CA, USA) on polyacrylamide gels (4–20%, Bio-Rad). Resolved proteins were electrophoretically transferred onto a PVDF membrane and blocked by incubating with 10% w/v non-fat powdered milk dissolved in 1 × Tris-buffered saline-tween 20 (TBST) for 1 h at room temperature prior to incubating overnight with primary antibodies at 4 °C with slight shaking. Chemiluminescence was detected with a ChemiDoc^TM gel imaging system after the membranes have been exposed to ECL substrates (GE Healthcare, PA, USA), and the Image Lab software (Bio-Rad) was used for image capture. The primary antibodies used were: β-Actin (Invitrogen, Cat MA515739, 1:5000), β-Tubulin (Cell Signaling Technology, Cat 2146, 1:1000), AKT (Cell Signaling Technology, Cat 9272, 1:1000), c-MYC (Cell Signaling Technology, Cat 5605, 1:1000), Caspase-3 (Cell Signaling Technology, Cat 9665, 1:1000), Cleaved PARP (Cell Signaling Technology, Cat 5625, 1:1000), ERK1/2 (p44/42 MAPK, Cell Signaling Technology, Cat 4695, 1:1000), GAPDH (Invitrogen, Cat PA1987, 1:1000), MCL-1 (Cell Signaling Technology, Cat 942965, 1:1000), PARP (Cell Signaling Technology, Cat 9532, 1:1000), Phospho-AKT (Ser473) (Cell Signaling Technology, Cat 9271, 1:1000), Phospho-ERK (Thr202/Tyr204) (Cell Signaling Technology, Cat 4370, 1:1000), Phospho-FLT3 (Tyr591) (Cell Signaling Technology, Cat 3461, 1:1000), Phospho-STAT5 (Tyr694) (Cell Signaling Technology, Cat 9359, 1:1000), RNAP II CTD (BioLegend (CA, USA), Cat 664906, 1:1000), RNAP II CTD Phospho-Ser2 (BioLegend, Cat 920204, 1:1000), RNAP II CTD Phospho-Ser5 (Abcam, Cat ab5408, 1:1000), STAT5 (Cell Signaling Technology, Cat 9363, 1:1000), and XIAP (Cell Signaling Technology, Cat 14334, 1:1000). Bands were quantified using ImageJ software (US National Institutes of Health, Bethesda, MD, USA).

[4] = tested on: MOLM-13 cells; experiment: Western blotting of cellular signaling pathways; type: cell-based; settings: MOLM-13, 24 h, concentration-dependent
Description: as §1

[5] = Maximum tolerated dose in non-tumor bearing mice; type: in vivo
Description: In vivo efficacy of CDDD11-8 against AML xenografts in mice. The maximum tolerated dose (MTD) of CDDD11-8 was determined in non-tumor bearing female BALB/c nude (nu/nu) mice (n = 3). […] Our proposed maximum dose of CDDD11-8 was 150 mg/kg once daily for seven days. […] All the animals received 28 doses of vehicle or CDDD11-8 at 75 or 125 mg/kg strength. […] The tumor regression was maintained over the dosing period. On day 29, the tumors in the 75 mg/kg treated group had recommenced growth to variable degrees (Supplementary Table S3). […] On day 29, one and three mice from the 75 and 125 mg/kg CDDD11-8 treated groups, respectively, had unmeasurable tumor size (zero tumor volume).

[6] = MV4-11, time-course, within 2 h

Compound Cc1cnc(N[C@H]2CC[C@H](N)CC2)nc1-c1cnc2ccc(-c3ccccc3)cn12 [CDDD11-8] has a pKa ([1]; first of three values) of 2.75, a pKa ([1]; second of three values) of 4.95 and a pKa ([1]; third of three values) of 9.89. The concentration at 4 h ([2]; plasma, 75 mg/kg, 75 mg/kg orally 5 days, mouse 1, read-out: Plasma concentration) was 490 ng/mL, the concentration at 4 h ([2]; plasma, 75 mg/kg, 75 mg/kg orally 5 days, mouse 2, read-out: Plasma concentration) was 441 ng/mL and the concentration at 4 h ([2]; plasma, 75 mg/kg, 75 mg/kg orally 5 days, mouse 3, read-out: Plasma concentration) was 1090 ng/mL. For the same compound, the concentration at 4 h ([2]; plasma, 125 mg/kg, 125 mg/kg orally 5 days, mouse 1, read-out: Plasma concentration) was 1440 ng/mL, the concentration at 4 h ([2]; plasma, 125 mg/kg, 125 mg/kg orally 5 days, mouse 2, read-out: Plasma concentration) was 2850 ng/mL and the concentration at 4 h ([2]; plasma, 125 mg/kg, 125 mg/kg orally 5 days, mouse 3, read-out: Plasma concentration) was 1800 ng/mL. It also gave a concentration at 4 h ([2]; tumor, 75 mg/kg, 75 mg/kg orally 5 days, mouse 1, read-out: Tumor concentration) of 2140 ng/g, a concentration at 4 h ([2]; tumor, 75 mg/kg, 75 mg/kg orally 5 days, mouse 2, read-out: Tumor concentration) of 1780 ng/g and a concentration at 4 h ([2]; tumor, 75 mg/kg, 75 mg/kg orally 5 days, mouse 3, read-out: Tumor concentration) of 1480 ng/g. The Kp at 4 h ([2]; tumor, 75 mg/kg, read-out: tumor concentration relative to plasma concentration) was 2.5, the concentration at 4 h ([2]; tumor, 125 mg/kg, 125 mg/kg orally 5 days, mouse 1, read-out: Tumor concentration) was 1680 ng/g and the concentration at 4 h ([2]; tumor, 125 mg/kg, 125 mg/kg orally 5 days, mouse 2, read-out: Tumor concentration) was 2310 ng/g. The concentration at 4 h ([2]; tumor, 125 mg/kg, 125 mg/kg orally 5 days, mouse 3, read-out: Tumor concentration) was 1850 ng/g, the “level of p-FLT3 Tyr591” value ([3]; MV4-11) was “reduced” and the “expression of MCL-1” value ([3]; MV4-11, 1 µM, 24 h) was “reduced to almost undetectable levels”. The “expression of XIAP” value ([3]; MV4-11, 1 µM, 24 h) was “reduced to almost undetectable levels”, the “expression of c-MYC” value ([3]; MV4-11, 0.3 and 1 µM, as early as 2 h) was “completely blocked” and the “reduction of p-RNAP II Ser2 level” value [3, 6] was “approximately 20%”. For the same compound, the “reduction of p-RNAP II Ser5 level” value [3, 6] was “approximately 20%”, the “phosphorylation of RNAP II CTD at Ser2 and Ser5” value [4] was “suppressed” and the MTD at 7 days ([5]; female, BALB/c nude (nu/nu), mouse, in vivo, oral, once daily for seven days) was 150 mg/kg. The body weight loss ([5]; oral 200 mg/kg, one mouse after five days, the rest after seven days) was over 15% and the “clinical signs of toxicity / weight loss” value ([5]; up to oral 150 mg/kg once daily for 7 days) was “no overt clinical signs of toxicity or significant weight loss”.
